Patent US20250345512A1, “COMBINATION SODIUM-GLUCOSE COTRANSPORTER INHIBITOR (SGLTI) INSULIN THERAPY FOR GLYCEMIC CONTROL IN TYPE 1 DIABETES” (University of Virginia Patent Foundation, priority 2022, published 2025)

Test system: participants with T1D
Assay: Randomized crossover clinical trial (NCT04201496): CGM glycemic outcomes with 5 mg daily empagliflozin adjunctive to AID (Control-IQ, CIQ) or PLGS (Basal-IQ, BIQ)
Type: in vivo, human
Settings: for % CGM time <50 mg/dL (<2.8 mmol/L) / % CGM time <60 mg/dL (<3.3 mmol/L) / % CGM time <70 mg/dL (<3.9 mmol/L) / % CGM time >180 mg/dL (>10.0 mmol/L) / % CGM time >250 mg/dL (>13.9 mmol/L) / % CGM time >300 mg/dL (>16.7 mmol/L) / CGM HBGI / CGM LBGI: median (IQR)
Description: FIG. 2 presents a study analysis relative to baseline, control IQ (CIQ) (e.g., AID), and basal IQ (BIQ) (e.g., PLGS) implementation, according to investigation that is demonstrable of one or more embodiments herein. Therein, an experimental arm (G1, G2) providing an initial daily dose of 5 mg empagliflozin (EMPA) is depicted against a control arm (G3, G4) without such dosing (NOEMPA). Relative characteristics of the analysis are provided below.
Study Design: A single-center, randomized, controlled, unblinded, crossover clinical trial (NCT04201496) compared four parallel groups, two groups in the experimental arm (EMPA) with 5 mg daily empagliflozin as adjunctive therapy to PLGS or AID, and two groups in the control arm (NOEMPA) with no drug and with a PLGS system (Basal-IQ, Tandem Diabetes Care) or AID system (Control-IQ, Tandem Diabetes Care). The groups within each arm differed from one another in the order of the randomly assigned crossover technological intervention, relative to PLGS being followed by AID or AID being followed by PLGS, respectively (FIG. 4). The study protocol was approved by the University of Virginia Institutional Review Board (IRB). An investigational device exemption (IDE), including an investigational new drug (IND) application for empagliflozin, was approved by the FDA. Safety aspects were overseen by an external data and safety monitoring board (DSMB). Participants: Major inclusion criteria were T1D treated with insulin for at least one year, use of continuous subcutaneous insulin infusion therapy for at least six months, age 18-65 yrs., no use of glucose lowering agents other than insulin, and Hb1Ac<9% (75 mmol/mol). Randomization: A (1:1:1:1) randomization assigned participants to either Group 1, AID-EMPA (4 weeks) followed by PLGS-EMPA (2 weeks), Group 2, PLGS-EMPA (2 weeks) followed by AID-EMPA (4 weeks), Group 3, AID-NOEMPA (4 weeks) followed by PLGS-NOEMPA (2 weeks), and Group 4, PLGS-NOEMPA (2 weeks) followed by AID-NOEMPA (4 weeks). Procedures: After confirmation of eligibility, participants underwent study equipment and medication training (experimental arm), or only study equipment training (control arm). Study equipment consisted of Dexcom G6® CGM (Dexcom Inc., San Diego, CA), Contour® Next blood glucose (Ascensia Diabetes Care, Basel, Switzerland) and Precision Xtra® blood ketone meters (Abbott, Alameda, CA) with their respective test strips; infusion sets, and the use of the t:slim X2™ insulin pump with Basal-IQ or Control-IQ technologies (Tandem Diabetes Care, San Diego, CA), according to randomization. […] Participants in the experimental arm were asked to record two days of baseline ketone values before initiating the use of the study drug. Thereafter, participants were directed to use the study CGM with EMPA for 1-2 weeks. A tolerance to the medication was assessed prior to the starting of the next study phase, including adherence to the protocol, ketone testing 2-4 times per day with monitored values not greater than 0.6 mmol/L on at least two successive occasions (the first testing upon waking in a fasted state), no adverse events relating to perineal infection or symptomatic postural hypotension, and no evidence of significant hypoglycemia <54 mg/dL, or any other listed adverse effects of the medication. Participants in the control arm were directed to use the study CGM for 1-2 weeks. Sample Size: The total sample size was projected to be 40 participants, assuming 1) 1:1:1:1 randomization; 2) 90% power and type 1 error a=0.01, further reinforcing the feasibility of hierarchical analyses. The projected recruitment sample was n=50, to accommodate up to 20% attrition rate without sacrificing statistical power. Analytical methods: For the primary analysis, TIR during the day in the 4-week AID period was compared between the two EMPA groups versus the two NOEMPA groups using a linear mixed-effects regression model while adjusting for pre-randomization HbAlc and age. […]

[1] = overall, CIQ-EMPA vs. CIQ-NOEMPA, BIQ-EMPA vs. BIQ-NOEMPA
[2] = overall, PLGS-EMPA (see Tables 4 and 5)
[3] = overnight, CIQ-EMPA vs. BIQ-NOEMPA, BIQ-EMPA vs. CIQ-NOEMPA
[4] = overnight, CIQ-EMPA vs. CIQ-NOEMPA, BIQ-EMPA vs. BIQ-NOEMPA
[5] = overnight, PLGS-EMPA compared to PLGS-NOEMPA

## OC[C@H]1O[C@@H](c2ccc(Cl)c(Cc3ccc(O[C@H]4CCOC4)cc3)c2)[C@H](O)[C@@H](O)[C@@H]1O [BIQ-EMPA, empagliflozin]
overall, CIQ-EMPA vs. BIQ-NOEMPA, BIQ-EMPA vs. CIQ-NOEMPA
  Difference: CGM LBGI: 0.2
[1]
  Difference: CGM HBGI: −4.3
  Difference: CGM LBGI: 0.1
  Difference: CGM SD: -14.3 mg/dL
[2]
  decrease in mean glucose overall: 24 mg/dL
  decrease in percent time in hyperglycemia: 18.6%
overall, n = 16, mean ± SD
  % CGM time <70-140 mg/dL (<3.9-7.8 mmol/L): 56.8 ± 16.5%
  % CGM time <70-180 mg/dL (<3.9-10.0 mmol/L): 79 ± 15.7%
  CGM CV (%): 32.1 ± 3.7%
  CGM SD: 46 ± 14.6 mg/dL
overall, n = 16
  % CGM time <50 mg/dL (<2.8 mmol/L): 0(0-0.4) %
  % CGM time <60 mg/dL (<3.3 mmol/L): 0.5(0.2-0.9) %
  % CGM time <70 mg/dL (<3.9 mmol/L): 1.7(0.9-2.7) %
  % CGM time >180 mg/dL (>10.0 mmol/L): 15(6.7-22.7) %
  % CGM time >250 mg/dL (>13.9 mmol/L): 1.7(0.2-3.6) %
  % CGM time >300 mg/dL (>16.7 mmol/L): 0.2(0-0.6) %
  CGM HBGI: 3.3(1.8-4.7)
  CGM LBGI: 0.7(0.6-1)
[3]
  Difference (95% CI): % CGM time <50 mg/dL (<2.8 mmol/L): −0.4 percentage points
  Difference (95% CI): % CGM time >180 mg/dL (>10.0 mmol/L): −5.1 percentage points
  Difference (95% CI): % CGM time >300 mg/dL (>16.7 mmol/L): −0.3 percentage points
  Difference (95% CI): CGM CV (%): −3.1%
  Difference (95% CI): CGM HBGI: −1.1
  Difference (95% CI): CGM LBGI: 0.3
  Difference (95% CI): CGM SD: -8.2 mg/dL
  Difference (95% CI): Mean CGM glucose: -9.8 mg/dL
[4]
  Difference (95% CI): % CGM time >180 mg/dL (>10.0 mmol/L): −18.2 percentage points
  Difference (95% CI): % CGM time >250 mg/dL (>13.9 mmol/L): −13.9 percentage points
  Difference (95% CI): % CGM time >300 mg/dL (>16.7 mmol/L): −4.8 percentage points
  Difference (95% CI): CGM HBGI: −6.2
  Difference (95% CI): CGM LBGI: 0.2
  Difference (95% CI): CGM SD: -17.2 mg/dL
[5]
  decrease in time in hyperglycemia: 7.6%
  increase in percent TIR: 17%
overnight, n = 16, mean ± SD
  % CGM time 70-140 mg/dL (3.9-7.8 mmol/L): 54 ± 21%
  % CGM time 70-180 mg/dL (3.9-10.0 mmol/L): 76 ± 21%
  CGM CV (%): 30.5 ± 4.2%
  CGM SD: 44.5 ± 14 mg/dL
  Mean CGM glucose: 145 ± 41 mg/dL
overnight, n = 16
  % CGM time <50 mg/dL (<2.8 mmol/L): 0(0-0.5) %
  % CGM time <60 mg/dL (<3.3 mmol/L): 0.5(0.1-1.1) %
  % CGM time <70 mg/dL (<3.9 mmol/L): 1.5(0.4-2.7) %
  % CGM time >180 mg/dL (>10.0 mmol/L): 16.2(7-30.8) %
  % CGM time >250 mg/dL (>13.9 mmol/L): 0.1(0-2.4) %
  % CGM time >300 mg/dL (>16.7 mmol/L): 0(0-0.2) %
  CGM HBGI: 3.3(2.1-5.2)
  CGM LBGI: 0.7(0.4-1.4)
overnight, out of 8 h of the night-time, listed as PLGS-EMPA
  night-time in range, h out of 8 h: 6 h
